Data: paper PMC6479714, “Multiplex Analysis Platform for Endocrine Disruption Prediction Using Zebrafish” (International Journal of Molecular Sciences, 2019)
Read-outs that look alike come from different tables or passages of the source.

What was measured:
cyp19a1b - mRNA [1] = conditions: cited from earlier work; for LogEC50 (cyp19a1b - mRNA): log of EC50 in μM
cyp19a1b - mRNA [2] = conditions: cited from earlier work
vtg - blood [3] = conditions: 8 days (adults), cited from earlier work
vtg1 - fluorescence = conditions: 21 days (adults), cited from earlier work
vitellogenin 1 (vtg1) = experiment: vtg1 gene expression (qPCR) in exposed zebrafish embryos; conditions: for EC50: Danio rerio, read-out: EC50 vtg1; for LogEC50 (vtg1 mRNA): log of EC50 in μM, 48-120 h, our study
vtg1 - mRNA = conditions: cited from earlier work
vtg - blood [4] = conditions: 21 days (adults), cited from earlier work; for EC50: read-out: EC50 (vtg - blood); for LogEC50 (vtg - blood): log of EC50 in μM
vtg - blood [5] = conditions: cited from earlier work; for LogEC50 (vtg - blood): log of EC50 in μM
cyp19a1b - mRNA [6] = conditions: 14 days (adults), cited from earlier work
aromatase (cyp19a1) = experiment: cyp19a gene expression (qPCR) in exposed zebrafish embryos; type: in vivo, zebrafish (Danio rerio); conditions: exposed 48–120 hpf; Figure S1
[7] = tested on: brain aromatase (cyp19a1b); experiment: cyp19a1b gene expression (qPCR) in exposed zebrafish embryos; type: in vivo, zebrafish (Danio rerio)
cyp19a1b - fluorescence = conditions: 0-96 h, cited from earlier work; for LogEC50 (cyp19a1b - fluorescence): log of EC50 in μM
cyp19a1b - vtg1 mRNA = experiment: estrogenic markers considered together (cyp19a1b - vtg1 mRNA), zebrafish embryos; conditions: Danio rerio, read-out: EC50 (cyp19a1b - vtg1 mRNA), class symbol
thyroid peroxidase (tpo) = experiment: tpo gene expression (qPCR) in exposed zebrafish embryos; type: in vivo, zebrafish (Danio rerio); conditions: for EC50: Danio rerio
carp hepatocytes = tested on: carp hepatocytes; design: method as in PMID 10478856; conditions: concentrations up to 100 µM; cited from earlier work
[8] = acute toxicity test from 48–120 hpf based on the OECD FET test; type: in vivo, zebrafish (Danio rerio); conditions: in vivo; zebrafish embryos exposed 48–120 hpf
Text: Twenty embryos per treatment were exposed to 5 concentrations of compound of interest in a 10× dilution factor from 48–120 hpf, which is the experimental time in which EDCs will be screened posteriorly. Embryos were exposed from 48–120 hpf rather than 0–96 hpf or 0–120 hpf to avoid unspecific toxicity outside of the EDC testing period, which have been chosen on the basis that endocrine pathways, e.g., thyroid metabolism, are not fully functional until 40–55 hpf in zebrafish embryos. Stock solutions of chemicals to be tested were freshly prepared in exposure medium. The highest concentration for each compound was selected according to its water solubility (Table S1). Exposures were performed in glass vessels to assure maximum bioavailability for hydrophobic compounds, and medium was not exchanged during the experiment.

transthyretin (ttr) = experiment: ttr gene expression (qPCR) in exposed zebrafish embryos; type: in vivo, zebrafish (Danio rerio); conditions: for EC50: Danio rerio
pax8 = pax8 gene expression (qPCR) in exposed zebrafish embryos; type: in vivo, zebrafish (Danio rerio); conditions: exposed 48–120 hpf
[9] = tested on: iodothyronine deiodinase 2 (dio2); experiment: dio2 gene expression (qPCR) in exposed zebrafish embryos; type: in vivo, zebrafish (Danio rerio); conditions: for EC50: Danio rerio
[10] = tested on: iodothyronine deiodinase 1 (dio1); experiment: dio1 gene expression (qPCR) in exposed zebrafish embryos; type: in vivo; conditions: Danio rerio; exposed 48–120 hpf; Figure 4; no unit printed for this gene
[11] = E2 1 µM alone, rescue experiment
[12] = ref [3] (supplement list: Brion 2012)
[13] = exogenous T3, 48–120 hpf, downregulated

For `C[C@]12CC[C@@H]3c4ccc(O)cc4CC[C@H]3[C@@H]1CC[C@@H]2O` [E2, 17β-estradiol], the EC50 (cyp19a1b - mRNA [1]; 0-72 h, * mean of an approximate range, ref [4] (supplement list: Lassiter 2007)) is given as roughly 10 nM, the EC50 (cyp19a1b - mRNA [1]; 0-96 h, ref [3] (supplement list: Brion 2012)) is given as 4.1 nM and the EC50 (cyp19a1b - mRNA [1]; 2-48 h, * mean of an approximate range, ref [6] (supplement list: Kishida 2001)) is given as roughly 10 nM. For the same molecule, the EC50 (cyp19a1b - mRNA [1]; 72-96 h, * mean of an approximate range, ref [5] (supplement list: Chung 2011)) was roughly 5.5 nM, the “LogEC50 (cyp19a1b - mRNA)” value (cyp19a1b - mRNA [1]; 0-72 h, ref [4] (supplement list)) was -2 and the “LogEC50 (cyp19a1b - mRNA)” value (cyp19a1b - mRNA [1]; 0-96 h, ref [3] (supplement list)) was -2.387. For the same molecule, the “LogEC50 (cyp19a1b - mRNA)” value (cyp19a1b - mRNA [1]; 2-48 h, ref [6] (supplement list)) was -2, the “LogEC50 (cyp19a1b - mRNA)” value (cyp19a1b - mRNA [1]; 72-96 h, ref [5] (supplement list)) was -2.26 and the “EC50 (cyp19a1b - mRNA), class symbol” value (cyp19a1b - mRNA [2]; 7 days (adults), ref [7] (supplement list: Hinfray 2006)) was “n.e”. For the same molecule, the “EC50 (cyp19a1b - mRNA), class symbol” value (cyp19a1b - mRNA [2]; 21 days (adults), ref [8] (supplement list: Kallivretaki 2006)) was “n.e”, the EC50 (vtg - blood [3]; ref [12] (supplement list: Rose 2002)) was 0.2 nM and the “LogEC50 (vtg - blood)” value (vtg - blood [3]; log of EC50 in μM, ref [12] (supplement list)) was -3.699. For the same molecule, the EC50 (vtg1 - fluorescence; ref [17] (supplement list: Zeng 2005)) was roughly 0.55 nM, the “LogEC50 (vtg1 - fluorescence)” value (vtg1 - fluorescence; log of EC50 in μM, ref [17] (supplement list)) was -3.26 and the EC50 (vitellogenin 1 (vtg1)) was 190 nM. The “FI vtg1, single exposure” value (vitellogenin 1 (vtg1); [11]) was 394.39, the “LogEC50 (vtg1 mRNA)” value (vitellogenin 1 (vtg1)) was -0.7212 and the EC50 (vtg1 - mRNA; 0-120 h, * mean of an approximate range, ref [11] (supplement list: Muncke 2006), read-out: EC50 (vtg1 - mRNA)) was roughly 30 nM. For the same molecule, the EC50 (vtg1 - mRNA; 0-168 h, * mean of an approximate range, ref [10] (supplement list: Chen 2018), read-out: EC50 (vtg1 - mRNA)) was roughly 180 nM, the “LogEC50 (vtg1 - mRNA)” value (vtg1 - mRNA; log of EC50 in μM, 0-120 h, ref [11] (supplement list)) was -1.523 and the “LogEC50 (vtg1 - mRNA)” value (vtg1 - mRNA; log of EC50 in μM, 0-168 h, ref [10] (supplement list)) was -0.757. For the same molecule, the EC50 (vtg - blood [4]; * mean of an approximate range, ref [16] (supplement list: Parks 1999)) was roughly 0.6 nM, the EC50 (vtg - blood [4]; ref [15] (supplement list: Dammann 2011)) was 0.09 nM and the “LogEC50 (vtg - blood)” value (vtg - blood [4]; ref [15] (supplement list)) was -4.046. For the same molecule, the “LogEC50 (vtg - blood)” value (vtg - blood [4]; ref [16] (supplement list)) was -3.222, the EC50 (vtg - blood [5]; 14 days (adults), ref [14] (supplement list: Brian 2005)) was 0.09 nM and the EC50 (vtg - blood [5]; 24 days (adults), ref [13] (supplement list: Van den Belt 2004)) was 0.6 nM. The “LogEC50 (vtg - blood)” value (vtg - blood [5]; 14 days (adults), ref [14] (supplement list)) was -4.046, the “LogEC50 (vtg - blood)” value (vtg - blood [5]; 24 days (adults), ref [13] (supplement list)) was -3.222 and the EC50 (cyp19a1b - mRNA [6]; effects only detected in males, ref [9] (supplement list: Halm 2002)) was 0.4 nM. The “LogEC50 (cyp19a1b - mRNA)” value (cyp19a1b - mRNA [6]; log of EC50 in μM, males, ref [9] (supplement list)) was -3.398, the “response of cyp19a” value (aromatase (cyp19a1)) was “no response” and the EC50 ([7]; Danio rerio, zebrafish embryos exposed 48–120 hpf, mRNA by qPCR) was 90 nM. The “FI cyp19a1b, single exposure” value [7, 11] was 64.54, the “LogEC50 (cyp19a1b mRNA)” value ([7]; log of EC50 in μM, 48-120 h, our study) was -1.046 and the EC50 (cyp19a1b - fluorescence; ref [2] (supplement list: Petersen 2013)) was 3.4 nM. For the same molecule, the EC50 (cyp19a1b - fluorescence; [12]) was 2.4 nM, the “LogEC50 (cyp19a1b - fluorescence)” value (cyp19a1b - fluorescence; ref [2] (supplement list)) was -2.469 and the “LogEC50 (cyp19a1b - fluorescence)” value (cyp19a1b - fluorescence; ref [3] (supplement list)) was -2.62.

For `O=S1OCC2C(CO1)C1(Cl)C(Cl)=C(Cl)C2(Cl)C1(Cl)Cl` (centres unmarked) [END, endosulfan], the “FI vtg1 at the most effective concentration” value (vitellogenin 1 (vtg1); 4 µM, compared to controls, downregulation) was 0.35, the EC50 (vitellogenin 1 (vtg1)) was 330 nM and the “LogEC50 (vtg1 mRNA)” value (vitellogenin 1 (vtg1)) was -0.4815. For the same molecule, the “downregulation of vtg1 expression compared to controls” value (vitellogenin 1 (vtg1); most effective concentration (4 µM)) was “more than 50%”, the EC50 (vtg1 - mRNA; 6-96 h, ref [25] (supplement list: Moon 2016), read-out: EC50 (vtg mRNA)) was 1960 nM and the “LogEC50 (vtg mRNA)” value (vtg1 - mRNA; log of EC50 in μM, 6-96 h, ref [25] (supplement list)) was 0.2923. For the same molecule, the EC50 (cyp19a1b - vtg1 mRNA) was greater than 4000 nM, the EC50 (thyroid peroxidase (tpo); read-out: EC50 tpo) was 60 nM and the “induction of vitellogenesis in carp hepatocytes” value (carp hepatocytes) was “not able to induce vitellogenesis”. The “effect on expression of cyp19a1b” value ([7]; exposed 48–120 hpf) was “not affecting expression” and the “EC50 (cyp19a1b - fluorescence), class symbol” value (cyp19a1b - fluorescence; [12]) was “n.e”.

`N[C@@H](Cc1cc(I)c(Oc2ccc(O)c(I)c2)c(I)c1)C(=O)O` [T3, 3,3′,5-triiodo-L-thyronine] gave an LC50 [8] of 6000 nM, an EC50 (transthyretin (ttr); read-out: EC50 ttr, exposed 48–120 hpf, Figure 4, downregulated) of 0.31 nM and an EC50 (transthyretin (ttr); read-out: EC50 ttr, exposure 0–96 hpf, Figure 1, comparison of exposure windows, 0–96 hpf) of 0.49 nM. For the same molecule, the EC50 (transthyretin (ttr); read-out: EC50 ttr, exposure 48–120 hpf, Figure 1, comparison of exposure windows, 48–120 hpf) was 0.32 nM, the EC50 (transthyretin (ttr); read-out: EC50 ttr, zebrafish embryos exposed 48–120 hpf, mRNA by qPCR) was 0.3 nM and the FI ttr (transthyretin (ttr); [13]) was 0.49. The “response of pax8” value (pax8) was “lack of response”, the EC50 ([9]; read-out: EC50 dio2, exposed 48–120 hpf, Figure 4, downregulated) was 0.28 nM and the EC50 ([9]; read-out: EC50 dio2, exposure 0–96 hpf, Figure 1, comparison of exposure windows, 0–96 hpf) was 6.81 nM. The EC50 ([9]; read-out: EC50 dio2, exposure 48–120 hpf, Figure 1, comparison of exposure windows, 48–120 hpf) was 1.23 nM, the EC50 ([9]; read-out: EC50 dio2, zebrafish embryos exposed 48–120 hpf, mRNA by qPCR) was 0.3 nM and the “FI dio2” value [9, 13] was 0.26. It also gave an EC50 (thyroid peroxidase (tpo); read-out: EC50 tpo, exposed 48–120 hpf, Figure 4, upregulated) of 9.93 nM, an EC50 (thyroid peroxidase (tpo); read-out: EC50 tpo, exposure 48–120 hpf, Figure 1, comparison of exposure windows, 48–120 hpf) of 4.09 nM and an EC50 (thyroid peroxidase (tpo); read-out: EC50 tpo, zebrafish embryos exposed 48–120 hpf, mRNA by qPCR) of 10 nM. For the same molecule, the “effect on tpo expression, exposure 0–96 hpf” value (thyroid peroxidase (tpo); embryos exposed from 0–96 hpf) was “slight decrease”, the FI tpo (thyroid peroxidase (tpo); exogenous T3, 48–120 hpf, upregulated) was 4.11 and the EC50 [10] was 3.58 nM.
